# Data from the supplement of paper PMC10307832.
# Assays:
# Assay in all cases: relative viability (nuclei count vs DMSO), 5 days (fraction); higher = more cells survive
# [1] = compound: CCC1=CN=CN=C1N2CCN(CC2)CC3=NC4=C(N3)C=C(C=C4)C(F)(F)F
# Method in brief: (§1)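 Hoechst staining, done together with fixation and permeabilisation, marked nuclei for 4× imaging and MetaXpress counting. This followed 5 days without medium change after lung cancer cell lines, kept overnight at 37 °C in 1536-well plates, were pinned with five library-drug doses (not always all listed) spaced by √10 on vehicle-anchored plates. Viability is the ratio of treated-well to vehicle-well nuclei, expressed as a median across plates. Plates passed only at control CV below 25% with at least one doubling.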
# [2] = compound: CCn1c(-c2nonc2N)nc2cnc(Oc3cccc(NC(=O)c4ccc(OCCN5CCOCC5)cc4)c3)cc21
# Method in brief: as §1
# Mirin = compound: N=C1NC(=O)/C(=C/c2ccc(O)cc2)S1 [Mirin]
# Method in brief: as §1
# [3] = compound: CCC1=CN=CN=C1N2CCN(CC2)CC3=NC4=C(N3)C=C(C=C4)C(F)(F)F + COc1cc2c(Oc3ccc(NC(=O)C4(C(=O)Nc5ccc(F)cc5)CC4)cc3F)ccnc2cc1OCCCN1CCOCC1 [Foretinib] (partner 0.25 µM)
# Method in brief: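 Lung cancer cell lines in 1536-well plates got either a single drug or a fixed anchor-drug dose together with five library-drug doses (not always all listed) in √10 steps, by pin tool, on the day after seeding. Nuclei were counted after 5 days, and relative viability is the treated-to-vehicle ratio of nuclei counts. Values are medians of duplicate plates.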
Cell Line,relative viability ([1]; 0.04 µM),relative viability ([1]; 0.1265 µM),relative viability ([1]; 0.4 µM),relative viability ([1]; 1.265 µM),relative viability ([1]; 4 µM),relative viability ([2]; 0.04 µM),relative viability ([2]; 0.1265 µM),relative viability ([2]; 0.4 µM),relative viability ([2]; 1.265 µM),relative viability ([2]; 4 µM),relative viability (Mirin; 0.25 µM),relative viability (Mirin; 2.5 µM),relative viability (Mirin; 7.906 µM),relative viability (Mirin; 25 µM),relative viability ([3]; first compound 0.04 µM),relative viability ([3]; first compound 0.1265 µM),relative viability ([3]; first compound 0.4 µM),relative viability ([3]; first compound 1.265 µM),relative viability ([3]; first compound 4 µM),relative viability (Mirin; 0.7906 µM)
NCI-H23,0.852,0.918,0.812,0.742,0.954,1.21,1,0.567,0.674,0.589,1,0.907,0.819,0.907,0.822,0.99,0.961,0.801,0.906,–
LU99A,1.14,0.904,0.902,0.821,0.92,1.02,0.694,0.67,0.536,0.504,0.997,0.922,0.864,0.857,0.744,0.751,0.771,0.804,0.87,0.783
NCI-H1437,0.948,0.92,0.921,0.863,0.747,1.03,0.933,0.763,0.796,0.705,1,0.984,0.995,0.958,1.23,1.14,1.15,1.15,1.08,1.02
EKVX,1.03,0.806,0.933,0.782,1.04,1.24,0.957,0.932,0.87,0.855,0.962,1.09,0.925,0.986,0.748,0.675,0.753,–,0.779,0.905
IA-LM,0.839,0.96,0.891,0.931,0.89,1.34,1.06,0.998,0.952,1.02,0.962,0.928,0.653,1.18,1.11,0.943,1.02,1.1,1.22,1.07
ABC-1,0.946,0.807,0.816,0.742,0.828,1.09,0.906,0.545,0.452,0.447,0.996,0.949,0.759,0.487,1.32,1.05,1.12,1.24,0.886,0.806
NCI-H596,1.01,0.935,0.882,0.736,1.08,1.01,0.869,0.799,0.865,0.83,0.996,1.02,1.02,0.973,0.861,1.13,0.818,–,0.966,1
NCI-H1703,0.953,0.914,0.819,0.73,0.968,1.02,0.809,0.616,0.635,0.41,1.07,0.966,–,0.83,0.344,0.366,0.369,0.381,0.372,0.925
LCLC-97TM1,0.849,0.95,1,1,0.95,1.37,1.1,–,0.899,1.03,1.1,1.13,0.621,0.677,0.897,0.898,0.895,0.838,0.888,0.706
NCI-H2170,0.946,0.97,0.953,0.848,0.946,0.95,0.953,0.919,0.732,0.754,1.05,0.985,0.946,0.933,1.01,0.975,0.94,0.867,1,0.89
NCI-H1793,0.894,0.796,0.702,–,0.796,0.897,0.838,0.526,0.587,0.483,1.1,0.987,0.914,0.826,0.7,0.771,0.568,–,0.669,–
NCI-H322M,1.05,0.95,0.935,0.729,1.01,1.22,1.17,0.882,0.656,0.72,0.99,0.967,1.19,0.944,1.08,0.907,0.939,0.953,0.925,0.867
PC-3 [JPC-3],1.01,0.947,0.965,1.01,1.02,1.02,0.976,0.982,0.947,0.926,1.07,1.01,1.12,1.2,1.08,0.9,0.997,0.964,0.971,1.04
EPLC-272H,0.801,0.979,0.87,0.797,0.793,1.26,1.01,0.873,0.705,0.74,0.944,0.945,0.762,0.721,0.787,0.787,0.688,0.653,0.639,–
A-427,0.885,0.961,0.857,0.808,0.887,1.23,0.936,0.727,0.587,0.444,0.983,1.02,0.961,1.03,1.03,1.11,1.03,0.959,0.534,0.716
